Measured values: patent publication US7390910B2, “Compounds for treating tumors” (priority 2003, dated 2008)
Several values for one entry are separate records, joined by “and”; a condition that tells them apart may be missing. Equal values may be shown once. *1 amine or outer side, *2 acyl side, *3 side chain or, on linkers, in order; H or OH if unused. Where a SMILES comes first, the peptide text is derived from it. [ ]: non-standard residue; d: D form. The star is where a group is joined. NMePhe(β,β-Me2) = CN[C@H](C(=O)O)C(C)(C)c1ccccc1; X1 = C/C(=C\[C@H](C(C)C)N(C)[*:1])C(=O)[*:2]; Tle = CC(C)(C)[C@H](N)C(=O)O; NHBn = c1ccc(CN*)cc1

What was measured:
[1] = tested on: KB85; test: cells; format: cell-based; conditions: for IC50: 3 days, SRB
Procedure: (§1) Cell Survival Assay: Standard Pharmacological Test Procedure. […] Compounds are incubated with cells for 3 days.

[2] = tested on: KB cells; test: cells; format: cell-based; conditions: for IC50: 3 days, SRB
Procedure: as §1

[3] = tested on: KBV1; test: cells; format: cell-based; conditions: for IC50: 3 days, SRB; for inhibition at 3 µM: KB-V1, 3000 nM
Procedure: as §1

[4] = tested on: A375; test: Cell survival assay (SRB), A375; format: cell-based; conditions: A375 cells
Procedure: as §1

[5] = tested on: Human Melanoma Carcinoma Lox; test: Growth of tumors in nude mice (LOX xenograft); format: in vivo, athymic nu/nu female mice
Source text: Growth of Tumors in Nude Mice. […] A p-value ≦0.05 indicates a statistically significant reduction in relative tumor growth of treated group compared to that of the vehicle control group.

[6] = tested on: LOX; test: Cell survival assay (SRB), LOX; format: cell-based, human; conditions: LOX cells
Procedure: as §1

[7] = tested on: HCT-15; test: Cell survival assay (SRB), HCT-15; format: cell-based; conditions: HCT-15 cells
Procedure: as §1

[8] = tested on: NCl-H1299; test: Cell survival assay (SRB), NCl-H1299; format: cell-based; conditions: NCl-H1299 cells
Procedure: as §1

[9] = tested on: bovine microtubule-associated protein (MAP)-rich tubulin; format: biochemical; conditions: 0.3 uM
Procedure, shortened: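 This in vitro polymerization assay used bovine tubulin rich in microtubule-associated proteins, prepared at 1.5 mg/ml in GPEM (PEM buffer containing 1 mM GTP) and cleared by a 12,000×g spin. Tubulin solution (100 μl/well) was dispensed onto duplicate 10 μl test samples. Control wells held 0.3% DMSO. A SpectraMax Plus reader recorded turbidity at 340 nm every minute over 60 min at 24° C.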

[10] = tested on: S1-M1; test: Cell survival assay (SRB), S1-M1; format: cell-based; conditions: S1-M1 cells
Procedure: as §1

[11] = tested on: S1; test: Cell survival assay (SRB), S1; format: cell-based; conditions: S1 cells
Procedure: as §1

[12] = tested on: Colo205; test: Cell survival assay (SRB), Colo205; format: cell-based; conditions: Homo sapiens, COLO 205, 72 h, Colo205 cells, 3 days
Procedure: as §1

[13] = tested on: KM20; test: Cell survival assay (SRB), KM20; format: cell-based; conditions: KM20 cells
Procedure: as §1

| Compound | IC50 [8] [nM] | Tubulin Polym. % inhibition at 0.3 uM [9] | IC50 ([1]; 72 h) [nM] | IC50 ([2]; Homo sapiens, KB, 72 h) [nM] | IC50 ([3]; Homo sapiens, KB-V1, 72 h) [nM] | IC50 ([6]; Homo sapiens) [nM] | IC50 ([7]; Homo sapiens) [nM] | IC50 [12] [nM] | further results |
| --- | --- | --- | --- | --- | --- | --- | --- | --- | --- |
| CN[C@H](C(=O)N[C@H](C(=O)N(C)[C@H](/C=C(\C)C(=O)NN)C(C)C)C(C)(C)C)C(C)(C)c1ccccc1 [Example 109, (2S)-N-[(1S,2E)-4-hydrazino-1-isopropyl-3-methyl-4-oxo-2-butenyl]-N,3,3-trimethyl -{[(2S)-3-methyl-2-(methylamino)-3-phenylbutanoyl]amino}butanamide] | – | – | – | – | – | – | – | – | IC50 [1]: 227 nM; IC50 [2]: 65 nM; KBV1 % inhibition @ 3000 nM [3]: 23%; IC50 [3]: 2080 nM; IC50 [4]: 19 nM; % T/C on day 7 ([5]; 3 mg/kg IV on days 1, 5, 9): 24%; % T/C on day 13 ([5]; 3 mg/kg IV on days 1, 5, 9, day 13): 8% |
| (2E,4S)-2,5-dimethyl-4-(methyl{3-methyl-N-[(2S)-3-methyl-2-(methylamino)-3-phenylbutyl]-L-valyl}amino)-2-hexenoic acid [Example 87] | 295 | 28% | – | – | – | – | – | – | IC50 [1]: 312 nM; IC50 [2]: 104 nM; KBV1 % inhibition @ 3000 nM [3]: 14%(2); IC50 [6]: 151 nM; IC50 [7]: 759 nM |
| CN[C@H](C(=O)N[C@H](C(=O)N(C)[C@H](/C=C(\C)C(=O)N1CCC[C@H]1C(=O)OC)C(C)C)C(C)(C)C)C(C)(C)c1ccccc1 [Example 35, N,β,β-trimethyl-L-phenylalanyl-N^1-{(1S,2E)-4-[(2S)-2-(methoxycarbonyl)pyrrolidin-1-yl]-1-isopropyl-3-methyl-4-oxobut-2-enyl}-N^1,3-dimethyl-L-valinamide] | – | 82% | 7.3 | 1.5 | 291 | – | – | – | IC50 [10]: 11 nM; IC50 [11]: 9 nM; % T/C on day 7 ([5]; 2 mg/kg IV on days 1, 5, 9): 5%; % T/C on day 14 ([5]; 2 mg/kg IV on days 1, 5, 9): 1% |
| C/C(=C\[C@H](C(C)C)N(C)C(=O)[C@@H](NC(=O)[C@@H](C)C(C)(C)c1ccccc1)C(C)(C)C)C(=O)O [Example 92, (E,4S)-4-[((2S)-2-{[(2S)-2,3-dimethyl-3-phenylbutanoyl]amino}-3,3-dimethylbutanoyl)(methyl)amino]-2,5-dimethyl-2-hexenoic acid] | 1200 | 94% | 990 | 861 | – | 1070 | 1380 | – | inhibition at 3 µM ([3]; Homo sapiens): 30% |
| CN[C@H](C(=O)N[C@H](C(=O)N(C)[C@H](/C=C(\C)C(C)=O)C(C)C)C(C)(C)C)C(C)(C)c1ccccc1 [Example 84, N,β,β-trimethyl-L-phenylalanyl-N^1-[(1S,2E)-1-isopropyl-3-methyl-4-oxo-2-pentenyl]-N^1,3-dimethyl-L-valinamide] | 832 | 69% | 664 | 403 | 2360 | 550 | 1260 | 180 | – |
| CN[C@H](C(=O)N[C@H](C(=O)N(C)[C@H](/C=C(\C)C=O)C(C)C)C(C)(C)C)C(C)(C)c1ccccc1 [Example 82, N,β,β-trimethyl-L-phenylalanyl-N^1-[(1S,2E)-1-isopropyl-3-methyl-4-oxo-2-butenyl]-N^1,3-dimethyl-L-valinamide] | 1570 | 51% and 47% | 1330 | 713 | 1940 | 630 | 1500 | 5.1 | IC50 [13]: 4.6 nM; IC50 [3]: > 3000 nM; IC50 ([4]; Homo sapiens, A-375): 663 nM |
| CN[C@H](C(=O)N[C@H](C(=O)N(C)[C@H](/C=C(\C)C(=O)N1CCC[C@H]1[C@H](OC)[C@@H](C)C(=O)OC)C(C)C)C(C)(C)C)C(C)(C)c1ccccc1 [Example 30, N,β,β-trimethyl-L-phenylalanyl-N^1-((1S,2E)-4-{(2S)-2-[(1R,2R)-1,3-dimethoxy-2-methyl-3-oxopropyl]pyrrolidin-1-yl}-1-isopropyl-3-methyl-4-oxobut-2-enyl)-N^1,3-dimethyl-L-valinamide] | – | 45% | 6 | 3.3 | 96 | – | – | – | % T/C on day 7 ([5]; 5 mg/kg IV on days 1, 5, 9): 11%; % T/C on day 14 ([5]; 5 mg/kg IV on days 1, 5, 9): 3% |
| CN[C@H](C(=O)N[C@H](C(=O)N(C)[C@H](/C=C(\C)C(=O)N1CCC[C@@H]1C(=O)N1CCC[C@@H]1C(=O)NCc1ccccc1)C(C)C)C(C)(C)C)C(C)(C)c1ccccc1 [Example 28, 1-{(2E,4S)-2,5-dimethyl-4-[methyl(N-methyl-3-phenyl-L-valyl-3-methyl-L-valyl)amino]hex-2-enoyl}-D-prolyl-N-benzyl-D-prolinamide] (H-[NMePhe(β,β-Me2)][Tle][X1][dP][dP]-NHBn) | – | 56(3) % | 21.9 | 1.07 | – | – | – | 0.25 | inhibition at 3 µM ([3]; Homo sapiens): 14%; % T/C on day 7 ([5]; 10 mg/kg IV on days 1, 5, 9): 10%; % T/C on day 10 ([5]; 10 mg/kg IV on days 1, 5, 9, day 10): 4% |
| CO[C@H](C(=O)N[C@H](C(=O)N(C)[C@H](/C=C(\C)C(=O)O)C(C)C)C(C)(C)C)C(C)(C)c1ccccc1 [Example 105, (E,4S)-4-[{N-[(2S)-2-methoxy-3-methyl-3-phenylbutanoyl]-3-methyl-L-valyl}(methyl)amino]-2,5-dimethyl-2-hexenoic acid] | – | 64% | – | 2690 | – | 1740 | – | 1740 | inhibition at 3 µM ([1]; 3000 nM): 21%; inhibition at 3 µM ([2]; Homo sapiens, 72 h, 3000 nM): 43%; inhibition at 3 µM ([3]; Homo sapiens): 0% |
| CN[C@H](C(=O)N[C@H](C(=O)N(C)[C@H](/C=C(\C)C(=O)N1CCC[C@H]1[C@H](OC)[C@@H](C)C(=O)N[C@@H](Cc1ccccc1)c1nccs1)C(C)C)C(C)(C)C)C(C)(C)c1ccccc1 [Example 29] | – | 62% | – | – | – | – | – | – | IC50 [1]: 4.1 nM; IC50 [2]: 0.75 nM; IC50 [3]: 180 nM; % T/C on day 7 ([5]; 10 mg/kg IV on days 1, 5, 9): 14%; % T/C on day 9 ([5]; 10 mg/kg IV on days 1, 5, 9, day 9): 9% |
| CN[C@H](C(=O)N[C@H](C(=O)N(C)[C@H](/C=C(\C)C(=O)N1CCOCC1)C(C)C)C(C)(C)C)C(C)(C)c1ccccc1 [Example 27, (2S)-N-[(1S,2E)-1-isopropyl-3-methyl-4-(4-morpholinyl)-4-oxo-2-butenyl]-N,3,3-trimethyl-2-{[(2S)-3-methyl-2-(methylamino)-3-phenylbutanoyl]amino}butanamide] | 38 | 69% | 73.5 | 43.5 | 1300 | 50 | 26 | 23 | IC50 [10]: 336 nM; IC50 [11]: 657 nM; % T/C on day 7 ([5]; 10 mg/kg IV on days 1, 5, 9): 13% and 11%; % T/C on day 12 ([5]; 10 mg/kg IV on days 1, 5, 9, day 12): 2%; % T/C on day 14 ([5]; 10 mg/kg IV on days 1, 5, 9): 2% |
| CN[C@H](C(=O)N[C@H](C(=O)N(C)[C@H](/C=C(\C)C(=O)N1CCN(C)CC1)C(C)C)C(C)(C)C)C(C)(C)c1ccccc1 [Example 26, N,β,β-trimethyl-L-phenylalanyl-N^1-[(1S,2E)-1-isopropyl-3-methyl-4-(4-methyl-1-piperazinyl)-4-oxo-2-butenyl]-N^1,3-dimethyl-L-valinamide] | – | 71(2) % | 60 | 33 | 2330 | 46 | – | – | % T/C on day 7 ([5]; 15 mg/kg IV on days 1, 5, 9): 4% |
